Experimental data: the supplement of paper PMC10307832

Columns and labels:
Test in all cases: relative viability (nuclei count vs DMSO), 5 days (fraction); higher = more cells survive
[1] = compound: COc1ncc(-c2ccc3nccc(-c4ccnnc4)c3c2)cc1NS(=O)(=O)c1ccc(F)cc1F [Omipalisib] + CC(C)C[C@H](NC(=O)[C@H](Cc1ccccc1)NC(=O)c1cnccn1)B(O)O [Bortezomib] (partner 0.002 µM)
Procedure, shortened: (§1)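 Five library-drug doses in √10 steps were combined with a fixed anchor-drug dose, or a single drug was given alone, by pin tool to lung cancer cell lines in 1536-well plates the day after seeding. Nuclei were stained and counted after 5 days. Relative viability is the nuclei count in treated wells over that in vehicle wells, taken as the median of duplicate plates.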

[2] = compound: COc1ncc(-c2ccc3nccc(-c4ccnnc4)c3c2)cc1NS(=O)(=O)c1ccc(F)cc1F [Omipalisib] + CCNC(=O)c1noc(-c2cc(C(C)C)c(O)cc2O)c1-c1ccc(CN2CCOCC2)cc1 [Luminespib] (partner 0.01 µM)
Procedure, shortened: as §1

[3] = compound: COc1ncc(-c2ccc3nccc(-c4ccnnc4)c3c2)cc1NS(=O)(=O)c1ccc(F)cc1F [Omipalisib] + C[C@@H](Oc1cc(-c2cnn(C3CCNCC3)c2)cnc1N)c1c(Cl)ccc(F)c1Cl [Crizotinib] (partner 1 µM)
Procedure, shortened: as §1

[4] = compound: COc1ncc(-c2ccc3nccc(-c4ccnnc4)c3c2)cc1NS(=O)(=O)c1ccc(F)cc1F [Omipalisib] + Cc1cc(Nc2cc(N3CCN(C)CC3)nc(Sc3ccc(NC(=O)C4CC4)cc3)n2)n[nH]1 [Tozasertib] (partner 0.1 µM)
Procedure, shortened: as §1

[5] = compound: COc1ncc(-c2ccc3nccc(-c4ccnnc4)c3c2)cc1NS(=O)(=O)c1ccc(F)cc1F [Omipalisib] + Nc1ncn([C@H]2C[C@H](O)[C@@H](CO)O2)c(=O)n1 [Decitabine] (partner 2 µM)
Procedure, shortened: as §1

[6] = compound: COc1ncc(-c2ccc3nccc(-c4ccnnc4)c3c2)cc1NS(=O)(=O)c1ccc(F)cc1F [Omipalisib] + CC(=O)Nc1cccc(-n2c(=O)n(C3CC3)c(=O)c3c(Nc4ccc(I)cc4F)n(C)c(=O)c(C)c32)c1 [Trametinib] (partner 0.02 µM)
Procedure, shortened: as §1

Cell Line	relative viability ([1]; first compound 0.0003 µM)	relative viability ([1]; first compound 0.003 µM)	relative viability ([1]; first compound 0.03 µM)	relative viability ([2]; first compound 0.0003 µM)	relative viability ([2]; first compound 0.003 µM)	relative viability ([2]; first compound 0.03 µM)	relative viability ([3]; first compound 0.0003 µM)	relative viability ([3]; first compound 0.003 µM)	relative viability ([3]; first compound 0.03 µM)	relative viability ([4]; first compound 0.0003 µM)	relative viability ([4]; first compound 0.003 µM)	relative viability ([4]; first compound 0.03 µM)	relative viability ([5]; first compound 0.0003 µM)	relative viability ([5]; first compound 0.003 µM)	relative viability ([5]; first compound 0.03 µM)	relative viability ([6]; first compound 0.0003 µM)	relative viability ([6]; first compound 0.003 µM)	relative viability ([6]; first compound 0.03 µM)
NCI-H1755	0.924	0.886	0.708	0.445	0.292	0.375	0.848	0.805	0.481	0.62	0.497	0.42	0.714	0.555	0.485	0.736	0.695	0.356
NCI-H1915	1.02	0.978	0.97	0.677	0.766	0.579	0.841	0.892	0.863	0.44	0.395	0.421	0.248	0.249	0.227	0.273	0.192	0.201
NCI-H1975	0.33	0.27	0.179	0.142	0.194	0.2	0.925	0.736	0.307	0.786	0.502	0.23	0.398	0.296	0.178	0.331	0.207	0.165
NCI-H1993	0.894	0.699	0.542	0.806	0.465	0.485	0.83	0.618	0.63	0.575	0.5	0.499	0.6	0.483	0.447	0.423	0.584	0.509
NCI-H2009	0.979	0.986	0.584	1.04	1.02	0.874	0.989	0.923	0.742	0.796	0.674	0.607	0.355	0.389	0.324	0.278	0.16	0.184
NCI-H2023	0.906	0.487	0.301	0.619	0.44	0.155	0.569	0.407	0.18	0.309	0.282	0.151	0.177	0.215	0.16	0.492	0.358	0.149
NCI-H2085	0.953	0.98	0.517	0.386	0.352	0.291	0.789	0.886	0.407	0.905	0.693	0.361	0.524	0.507	0.348	0.456	0.255	0.257
NCI-H2087	0.851	0.867	0.736	0.166	0.14	0.158	0.795	0.935	0.734	0.243	0.224	0.126	0.327	0.192	0.125	0.18	0.163	0.142
NCI-H2126	1.06	0.895	0.734	0.825	0.567	0.338	0.965	0.866	0.559	0.712	0.612	0.353	0.548	0.414	0.304	0.487	0.397	0.327
NCI-H2347	1.02	1.06	0.663	0.304	0.267	0.339	0.827	0.685	0.293	0.66	0.378	0.211	0.538	0.523	0.464	0.245	0.252	0.215
NCI-H2405	0.895	0.909	0.578	0.661	0.392	0.298	0.852	0.769	0.408	0.76	0.648	0.359	0.701	0.482	0.308	0.486	0.37	0.271
NCI-H3122	1.01	1.04	0.818	0.074	0.0541	0.089	0.258	0.231	0.159	0.348	0.26	0.172	0.319	0.258	0.139	0.185	0.137	0.119
PC-3 [JPC-3]	0.788	0.888	0.909	0.677	0.587	0.485	0.922	1	0.889	1.01	0.856	0.625	0.776	0.816	0.627	0.738	0.664	0.439
PC-14	0.822	0.991	0.646	0.154	0.143	0.16	0.855	0.912	0.799	0.672	0.674	0.411	0.19	0.248	0.222	0.807	0.682	0.243
RERF-LC-KJ	1.1	0.795	0.664	1.15	1.13	0.688	0.736	0.814	0.679	0.463	0.525	0.382	0.637	0.502	0.434	0.769	0.635	0.413
SK-LU-1	1.1	0.724	0.511	0.206	0.199	0.19	0.91	0.712	0.515	0.339	0.301	0.237	0.633	0.548	0.494	0.411	0.36	0.253
SW 1573	0.885	0.818	0.411	0.208	0.198	0.157	0.812	0.628	0.379	0.171	0.146	0.109	0.306	0.241	0.239	0.441	0.373	0.226
UMC-11	0.678	0.556	0.643	0.913	0.775	0.742	0.491	0.588	0.434	0.217	0.209	0.22	0.491	0.397	0.527	0.612	0.359	0.36
